# Source: publication PMC8341874 (RSC Chemical Biology, 2021)
# Test system: 20S core particle (20S CP) of the proteasome
# Assay: FRET peptide reporter hydrolysis, single concentration
# Type: biochemical, Homo sapiens
# Details: stimulator (activation); site unknown
smiles,measurement,value
"C[C@H]1[C@H](C)CC[C@]2(C(=O)O)CC[C@]3(C)C(=CC[C@@H]4[C@@]5(C)CC[C@H](O)C(C)(C)[C@@H]5CC[C@]43C)[C@H]12 [UA, ursolic acid]",% stimulation over control at 25 μM,215%
